Data taken from patent US5190741A, “Agents for diagnosing and treating melanomas, aromatic halogenated derivatives usable as such agents and their preparation” (Institut National de la Sante et de la Recherche Medicale …, priority 1989, dated 1993).
Where two headings read alike, the source gives them in different places.

Tests used:
[1] = system: pulmonary colonies of B16 melanoma; test: Autoradiograms, pulmonary metastasing colonies after i.v. B16 cells; type: in vivo, mouse; settings: 1 to 7 hours after injection
Method: (§1) The autoradiograms are carried out in mice bearing grafted melanomas:
(§2) The animals bearing grafted tumors receive the labelled compounds in the form of the hydrochloride in saline solution (3.7 to 5×10^5 Bq/animal) in a caudal vein. At different time intervals after the administration of the compounds (from 15 minutes to 24 hours) the mice are anesthetized with ether and plunged into liquid nitrogen.
30 μm sections, parallel to a sagittal plane, are prepared in a freezing microtome (TS 260, SLEE) according to the protocol described by Ullberg. The sections, dehydrated in the cold, are applied to sensitive films, Ultrofim ^3 H (LKB, 2208-190) or Hyperfilm ^3 H (Amersham, RPN 535).
After the i.v. injection of B16 melanoma cells the appearance of predominantly pulmonary metastasing colonies is noticed.

B16 murine melanoma = test: Autoradiograms, C57 BL6 mice bearing B16; type: in vivo, mouse
Method: as §1
a. C57 BL6 bearing the B16 murine melanoma.
as §2
(§3) 30 μm sections, parallel to a sagittal plane, are prepared in a freezing microtome (TS 260, SLEE) according to the protocol described by Ullberg.

[2] = Tissue distribution in C57 BL6 mice bearing B16; type: in vivo, mouse; settings: mouse, iv, 3 umol/animal
Method in brief: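 Tumour-bearing mice (grafted human or murine melanoma) received 125I-labelled compounds; blood and principal organs were taken at intervals of 1 to 24 h post-injection. Weighed tissue aliquots were gamma-counted (60% counting yield), with uptake given as % injected dose per g tissue and as organ ratios reflecting selectivity.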

[3] = system: Beu melanic human melanoma; test: Autoradiograms, nu/nu SSCUP nude mice bearing Beu; type: in vivo
Method: as §1
b. nu/nu SSCUP nudes bearing heterotransplants of melanic (Beu) or amelanic (Dau) human melanomas).
as §2, §3

[4] = LD50 determination, i.v. (Karber and Behrens); settings: mouse, in vivo, iv
Excerpt: (§4) The determination of the LD50 is made in the mouse after i.v. injection of the molecules according to the methodology described by Karber and Behrens.
(§5) 6 weeks old OF 1 male mice

[5] = system: 6 weeks old OF 1 male mice; test: LD50 determination, i.v. (Karber and Behrens); settings: mouse, in vivo, iv
Excerpt: as §4, §5

[6] = kidney, read-out: kidney % ID/g
[7] = muscle, read-out: muscle % ID/g
[8] = plasma, read-out: plasma % ID/g

Question: With `CCNCCNC(=O)c1ccc(I)cc1` [Derivative B, N-(2-ethylaminoethyl) 4-iodo benzamide] as the compound, how does the “visualization of pulmonary colonies” value [1] read?
Answer: readily visualized

Question: What about the “darkening of the film at the tumor” value (B16 murine melanoma; 1 h after injection) of the same compound?
Answer: qualitatively as great as after the injection of A

Question: And the “tumoral radioactive concentration (autoradiogram)” value (B16 murine melanoma; 4 h and particularly 6 h, compared with A)?
Answer: more intense tumoral radioactive concentration

Question: What about the “tumor visibility on autoradiogram” value (B16 murine melanoma; 24 h after i.v.) of the same compound?
Answer: still visible

Question: And the “radioactivity remaining in the organism” value (B16 murine melanoma; 24 h after injection)?
Answer: no radioactivity remains in the organism

Question: What about the tissue uptake at 1 h ([2]; blood, read-out: blood % ID/g) of the same compound?
Answer: 1.31 %ID/g

Question: What about the tissue uptake at 2 h ([2]; blood, read-out: blood % ID/g) of the same compound?
Answer: 0.67 %ID/g

Question: What about the tissue uptake at 4 h ([2]; blood, read-out: blood % ID/g) of the same compound?
Answer: 0.27 %ID/g

Question: And the tissue uptake at 6 h ([2]; blood, read-out: blood % ID/g)?
Answer: 0.14 %ID/g

Question: And the tissue uptake at 24 h ([2]; blood, read-out: blood % ID/g)?
Answer: 0.03 %ID/g

Question: What about the tissue uptake at 1 h ([2]; brain, read-out: brain % ID/g) of the same compound?
Answer: 3.26 %ID/g

Question: What about the tissue uptake at 2 h ([2]; brain, read-out: brain % ID/g) of the same compound?
Answer: 2.09 %ID/g

Question: What about the tissue uptake at 4 h ([2]; brain, read-out: brain % ID/g) of the same compound?
Answer: 1.17 %ID/g

Question: What about the tissue uptake at 6 h ([2]; brain, read-out: brain % ID/g) of the same compound?
Answer: 0.5 %ID/g

Question: What about the tissue uptake at 24 h ([2]; brain, read-out: brain % ID/g) of the same compound?
Answer: 0.01 %ID/g

Question: And the tissue uptake at 1 h ([2]; eye, read-out: eye % ID/g)?
Answer: 0.45 %ID/g

Question: And the tissue uptake at 2 h ([2]; eye, read-out: eye % ID/g)?
Answer: 0.43 %ID/g

Question: And the tissue uptake at 4 h ([2]; eye, read-out: eye % ID/g)?
Answer: 0.42 %ID/g

Question: What about the tissue uptake at 6 h ([2]; eye, read-out: eye % ID/g) of the same compound?
Answer: 0.38 %ID/g

Question: And the tissue uptake at 24 h ([2]; eye, read-out: eye % ID/g)?
Answer: 0.24 %ID/g

Question: And the tissue uptake at 1 h [2, 6]?
Answer: 14.4 %ID/g

Question: What about the tissue uptake at 2 h [2, 6] of the same compound?
Answer: 8.64 %ID/g

Question: What about the tissue uptake at 4 h [2, 6] of the same compound?
Answer: 4.42 %ID/g

Question: And the tissue uptake at 6 h [2, 6]?
Answer: 1.86 %ID/g

Question: And the tissue uptake at 24 h [2, 6]?
Answer: 0.16 %ID/g

Question: And the tissue uptake at 1 h ([2]; liver, read-out: liver % ID/g)?
Answer: 6.96 %ID/g

Question: And the tissue uptake at 2 h ([2]; liver, read-out: liver % ID/g)?
Answer: 3.72 %ID/g

Question: What about the tissue uptake at 4 h ([2]; liver, read-out: liver % ID/g) of the same compound?
Answer: 2.05 %ID/g

Question: What about the tissue uptake at 6 h ([2]; liver, read-out: liver % ID/g) of the same compound?
Answer: 0.96 %ID/g

Question: What about the tissue uptake at 24 h ([2]; liver, read-out: liver % ID/g) of the same compound?
Answer: 0.22 %ID/g

Question: And the tissue uptake at 1 h ([2]; lung, read-out: lungs % ID/g)?
Answer: 14.4 %ID/g

Question: What about the tissue uptake at 2 h ([2]; lung, read-out: lungs % ID/g) of the same compound?
Answer: 8 %ID/g

Question: What about the tissue uptake at 4 h ([2]; lung, read-out: lungs % ID/g) of the same compound?
Answer: 4.49 %ID/g

Question: And the tissue uptake at 6 h ([2]; lung, read-out: lungs % ID/g)?
Answer: 2.1 %ID/g

Question: What about the tissue uptake at 24 h ([2]; lung, read-out: lungs % ID/g) of the same compound?
Answer: 0.05 %ID/g

Question: What about the tissue uptake at 1 h [2, 7] of the same compound?
Answer: 2.55 %ID/g

Question: What about the tissue uptake at 2 h [2, 7] of the same compound?
Answer: 1.33 %ID/g

Question: And the tissue uptake at 4 h [2, 7]?
Answer: 0.67 %ID/g

Question: And the tissue uptake at 6 h [2, 7]?
Answer: 0.2 %ID/g

Question: What about the tissue uptake at 24 h [2, 7] of the same compound?
Answer: 0.02 %ID/g

Question: What about the tissue uptake at 1 h [2, 8] of the same compound?
Answer: 0.73 %ID/g

Question: What about the tissue uptake at 2 h [2, 8] of the same compound?
Answer: 0.4 %ID/g

Question: What about the tissue uptake at 4 h [2, 8] of the same compound?
Answer: 0.21 %ID/g

Question: What about the tissue uptake at 6 h [2, 8] of the same compound?
Answer: 0.13 %ID/g

Question: What about the tissue uptake at 24 h [2, 8] of the same compound?
Answer: 0.02 %ID/g

Question: What about the tissue uptake at 1 h ([2]; tumor, read-out: tumor % ID/g) of the same compound?
Answer: 6.03 %ID/g

Question: What about the tissue uptake at 2 h ([2]; tumor, read-out: tumor % ID/g) of the same compound?
Answer: 5.73 %ID/g

Question: And the tissue uptake at 4 h ([2]; tumor, read-out: tumor % ID/g)?
Answer: 4.36 %ID/g

Question: And the tissue uptake at 6 h ([2]; tumor, read-out: tumor % ID/g)?
Answer: 4.69 %ID/g

Question: And the tissue uptake at 24 h ([2]; tumor, read-out: tumor % ID/g)?
Answer: 0.49 %ID/g

Question: And the “darkening along the circumference of the tumor” value ([3]; 6 h after injection)?
Answer: more pronounced darkening along the circumference of the tumor

Question: And the “time up to which tumor is visible on autoradiogram” value ([3]; after injection)?
Answer: up to 6 h

Question: And the LD50 [4]?
Answer: 175 mg/kg

Question: What about the “LD 0” value [5] of the same compound?
Answer: 150 mg/kg

Question: What about the “LD 100” value [5] of the same compound?
Answer: 200 mg/kg
